Experimental data reported in patent US8420670B2 (Abbott Laboratories, priority 2007, dated 2013).
pIC50, pKi: −log10 of the molar value. Counter-ions that a name gives are not always drawn.

Columns and labels:
Human GlyT1c = target: T1, Human GlyT1c (Homo sapiens, UniProt P48067); experiment: Glycine uptake in recombinant hGlyT1 expressing cells; assay type: cell-based; details: hGlyT1c_5_CHO cells; [3H]-glycine uptake, 60-120 min
T1 construct: expressed in transfected cells; host or cells: CHO (hGlyT1c_5_CHO clone)
T1 sequence (P48067 1-706): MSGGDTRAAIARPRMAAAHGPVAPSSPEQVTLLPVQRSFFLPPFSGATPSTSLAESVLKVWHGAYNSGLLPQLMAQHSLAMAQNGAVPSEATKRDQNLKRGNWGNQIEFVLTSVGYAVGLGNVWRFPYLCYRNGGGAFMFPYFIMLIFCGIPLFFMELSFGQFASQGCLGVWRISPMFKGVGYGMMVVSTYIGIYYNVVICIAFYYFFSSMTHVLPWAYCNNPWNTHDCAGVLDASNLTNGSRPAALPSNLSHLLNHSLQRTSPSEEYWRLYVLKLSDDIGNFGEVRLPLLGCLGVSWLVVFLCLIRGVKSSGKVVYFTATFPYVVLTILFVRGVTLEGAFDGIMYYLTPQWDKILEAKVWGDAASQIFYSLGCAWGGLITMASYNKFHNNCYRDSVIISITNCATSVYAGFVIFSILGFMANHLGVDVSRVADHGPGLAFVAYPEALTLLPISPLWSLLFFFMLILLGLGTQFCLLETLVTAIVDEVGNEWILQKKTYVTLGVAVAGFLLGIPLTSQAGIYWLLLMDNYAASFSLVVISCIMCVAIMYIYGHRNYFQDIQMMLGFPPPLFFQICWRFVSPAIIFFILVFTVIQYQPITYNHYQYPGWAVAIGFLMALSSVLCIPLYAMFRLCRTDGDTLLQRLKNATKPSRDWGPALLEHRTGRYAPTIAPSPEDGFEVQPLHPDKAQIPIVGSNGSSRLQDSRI
Method in brief: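 Recombinant hGlyT1c CHO cells were washed in HBSS with 5 mM L-alanine, then given inhibitor and [3H]-glycine. Uptake was counted continuously by solid-phase scintillation for up to 3 h, with nonspecific uptake defined by 10 μM Org24598. IC50 came from four-parameter logistic fits over the linear 60–120 min range.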

human GlyT1c transporter = target: T2, human GlyT1c transporter (Homo sapiens, UniProt P48067); experiment: [3H]-(R)-NPTS radioligand binding assay using recombinant hGlyT1 expressing cell membranes; details: 0.5 nM [3H]-(R)-NPTS, apparent Ki via Cheng-Prusoff, read-out: [3H]-(R)-NPTS bindung Ki
T2 construct: expressed in transfected cells; host or cells: recombinant hGlyT1-expressing cells
T2 sequence (P48067 1-706): T1 sequence (P48067 1-706)
Method in brief: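 Membranes expressing human GlyT1c (50 μg/ml protein) were incubated with 0.5 nM [3H]-(R)-NPTS in pH 7.5 HEPES/NaCl buffer with 1% DMSO for 1 h at room temperature, then filtered. Non-specific binding was defined with 10 μM Org24598, and IC50 values were converted to apparent Ki by Cheng-Prusoff.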

Row | pIC50 (Human GlyT1c) | pKi (human GlyT1c transporter) | Structure (SMILES)
1 | ≥ 7.00 | ≥ 8.00 | Cc1cc(NCc2ccc(Cl)c(Cl)c2)c2cccc(OCCNS(=O)(=O)c3cccnc3)c2n1 [Example 30, Pyridine-3-sulfonic {2-[4-(3,4-dichlorobenzylamino)-2-methylquinolin-8-yloxy]-ethyl}amide]
2 | ≥ 5.00 | ≥ 5.00 | COc1cccc2c(NC(CN3CCCCC3)c3ccc(Cl)cc3)cc(C)nc12 (stereo not drawn) [Example 66, [1-(4-Chlorophenyl)-2-piperidin-1-yl-ethyl]-(8-methoxy-2-methylquinolin-4-yl)-amine]
3 | ≥ 6.00 | ≥ 6.00 | COc1cccc2c(NC(CN)c3ccccc3)cc(C)nc12 (stereo not drawn) [Example 75, N*1*-(8-Methoxy-2-methylquinolin-4-yl)-1-phenylethane-1,2-diamine]
4 | ≥ 6.00 | ≥ 7.00 | Cc1cc(NCc2ccc(Cl)c(Cl)c2)c2cccc(OCCN(C)C)c2n1 [Example 50, (3,4-Dichlorobenzyl)-[8-(2-dimethylamino-ethoxy)-2-methylquinolin-4-yl]-amine dihydrochloride]
5 | ≥ 6.00 | ≥ 7.00 | Cc1cc(NCc2ccc(Cl)c(Cl)c2)c2cccc(OCCN3CCCC3)c2n1 [Example 52, (3,4-Dichlorobenzyl)-[2-methyl-8-(2-pyrrolidin-1-yl-ethoxy)-quinolin-4-yl]-amine]
6 | ≥ 5.00 | ≥ 5.00 | COc1cccc2c(NC(CN3CCCC3)c3ccccc3)cc(C)nc12 (stereo not drawn) [Example 69, (8-Methoxy-2-methylquinolin-4-yl)-(1-phenyl-2-pyrrolidin-1-ylethyl)-amine]
7 | ≥ 6.00 | ≥ 6.00 | COc1cccc2c(NCc3ccc(Cl)cc3)cc(C)nc12 [Example 84, (4-Chlorobenzyl)-(2-methyl-8-methoxyquinolin-4-yl)amine]
8 | ≥ 4.00 | ≥ 5.00 | CN(C)c1cc(NCc2ccccc2)c2ccccc2n1 [Example 94, N*4*-Benzyl-N*2*,N*2*-dimethylquinoline-2,4-diamine]
9 | ≥ 6.00 | ≥ 7.00 | Cc1cc(NCc2ccc(Cl)c(Cl)c2)c2cccc(O)c2n1 [Example 41, 4-(3,4-Dichlorobenzylamino)-2-methylquinolin-8-ol]
10 | ≥ 4.00 | ≥ 5.00 | C=CCN1CCCC[C@H]1[C@@H](Nc1cc(C)nc2ccccc12)c1ccccc1 [Example 59, [(S)—((S)-1-Allylpiperidin-2-yl)-phenylmethyl]-(2-methylquinolin-4-yl)-amine]
11 | ≥ 5.00 | ≥ 6.00 | Cc1cc(NCc2ccc(Cl)c(Cl)c2)c2cccc(Oc3ccccn3)c2n1 [Example 55, (3,4-Dichlorobenzyl)-[2-methyl-8-(pyridin-2-yloxy)-quinolin-4-yl]-amine]
12 | ≥ 7.00 | ≥ 8.00 | COc1cccc2c(NC(CN(C)C)c3ccc(Cl)cc3)cc(C)nc12 (racemic) [Example 68, (rac)-1-(4-Chlorophenyl)-N*1*-(8-methoxy-2-methylquinolin-4-yl)-N*2*,N*2*-dimethylethane-1,2-diamine dihydrochloride]
13 | ≥ 5.00 | ≥ 5.00 | CCCOc1cccc2c(NCc3ccc(C(F)(F)F)c(Cl)c3)cc(C)nc12 [Example 45, (3-Chloro-4-trifluoromethylbenzyl)-(2-methyl-8-propoxyquinoline-4-yl)-amine hydrochloride]
14 | ≥ 6.00 | ≥ 6.00 | Cc1cc(NCc2ccc(Cl)c(Cl)c2)c2cccc(OCCNC(=O)C(C)C)c2n1 [Example 26, N-{2-[4-(3,4-Dichlorobenzylamino)-2-methylquinolin-8-yloxy]-ethyl}-isobutyramide]
15 | ≥ 6.00 | ≥ 6.00 | Cc1cc(NCc2ccc(Cl)c(Cl)c2)c2cccc(Oc3ccccc3)c2n1 [Example 44, (3,4-Dichlorobenzyl)-(2-methyl-8-phenoxyquinolin-4-yl)-amine]
